Experimental data from patent publication US20250188110A1, “SPECIFIC SMALL MOLECULE INHIBITORS THAT BLOCK KMT9 METHYLTRANSFERASE ACTIVITY AND FUNCTION” (ALBERT-LUDWIGS-UNIVERSITÄT FREIBURG, priority 2021, published 2025).
pIC50, pKd: −log10 of the molar value.

What was measured:
[1] = target: T1, KMT9 (Homo sapiens, UniProt Q9Y5N5); experiment: KMT9 thermal shift assay (SyproOrange); format: binding; conditions: ΔTm; 500 µM compound, 2 μM KMT9, 5X SO; read-out: Thermal shift
T1 sequence (Q9Y5N5 1-214): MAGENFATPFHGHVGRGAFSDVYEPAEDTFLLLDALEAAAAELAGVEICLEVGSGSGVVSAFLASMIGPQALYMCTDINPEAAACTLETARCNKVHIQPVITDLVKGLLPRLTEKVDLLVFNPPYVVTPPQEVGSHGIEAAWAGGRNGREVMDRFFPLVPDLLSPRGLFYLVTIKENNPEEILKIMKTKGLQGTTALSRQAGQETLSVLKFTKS
T1 sequence (Q9UI30 1-120 isoform Q9UI30-2 partner): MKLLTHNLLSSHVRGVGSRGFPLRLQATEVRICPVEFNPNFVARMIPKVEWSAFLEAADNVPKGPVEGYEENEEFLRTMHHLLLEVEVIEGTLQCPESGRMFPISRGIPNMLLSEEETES
Experimental: The assay was carried out in 96-well Hard-Shell PCR plates (Bio-Rad Laboratories Inc.). Assay buffer consisted of 50 mM BTP, 1 mM MgCl2 and 1 mM DTT at a pH of 8.5 (adjusted using 1 M HCl and 1 M NaOH). 20X inhibitor stock (in DMSO), 2X enzyme stock and 4X SyproOrange (SO) stock (both in assay buffer) were prepared. 1 μL of 20X compound, 4 μL of assay buffer, 10 μL of 2X KMT9 and 5 μL of 4X SO were pipetted. For the no-compound control, 20X inhibitor stock was replaced by DMSO. The final volume was 20 μL. The plate was spun down at 700 rpm for 1 min using a Hettich UNIVERSAL 320 centrifuge and incubated at 25° C., shaking at 600 rpm. After incubation, the plate was spun down for 1 min at 700 rpm and measurement was conducted using a CFX96 Touch Real-Time PCR Detection System (Bio-Rad Laboratories Inc.). The plate was equilibrated at 20° C. for 4 min and then heated stepwise at a rate of 1° C. per 15 s until 95° C. After every step, fluorescence was measured in FRET mode. Calculation of melting points was conducted by a Boltzman sigmoidal model using GraphPad Prism 7.0.
For the results of the thermal shift assay shown as “Thermal shift” in Table 1, “++++” represents a ΔTm of greater 20 K, “+++” represents a ΔTm of greater than 15 K and less than or equal to 20 K (15 K<ΔTm≤20 K); “++” represents a ΔTm of greater than 10 K and less than or equal to 15 K (10 K<ΔTm ≤ 15 K); “+” represents a ΔTm of equal to or less than 10 K (ΔTm≤10 K).

[2] = target: T1, KMT9; experiment: KMT9 methyltransferase inhibition assay, 3H-SAM scintillation (entries 1-154); format: biochemical; conditions: entries 1-154: 3H-SAM assay, 25 nM KMT9, 5 μM ETF1
Experimental: The assay was carried out in 0.5 mL Eppendorf tubes in duplicates. Assay buffer consisted of 50 mM BTP, 1 mM MgCl2, 1 mM DTT and 0.01% Triton-X^100 at a pH of 8.5 (adjusted using 1 M HCl and 1 M NaOH). 20X inhibitor stock (in DMSO), 2X enzyme stock and 4X substrate mix (both in assay buffer) were prepared. The substrate mix consisted of Tritium-labelled S-adenosylmethionine (3H-SAM), S-adenosylmethionine (SAM) and eukaryotic peptide chain release factor subunit1 (Homo sapiens, residues 140-275)(ETF1). Final assay concentrations were set to 25 nM KMT9, 0.3 μM 3H-SAM, 0.7 µM SAM and 5 μM ETF1. […] 5 μL of 4x substrate mix was added to initiate the reaction. The final reaction volume was 20 μL. For the positive control, the compound of formula (I) was replaced by DMSO; for the negative control, the compound of formula (I) was replaced by DMSO and KMT9 was replaced by assay buffer. The reaction mix was incubated in an Eppendorf thermomixer comfort at 30° C. for 2 h, shaking at 300 rpm. The reaction was quenched using 5 μL 50% trichloroacetic acid (TCA) and incubated at 25° C. for 5 minutes. 22 μL of the mixture was transferred into 96-well MultiScreen@HTS FB filter plates (Merck KGaA, Darmstadt, Germany) and washed four times with 10% TCA and two times with 100% ethanol. The plate was dried overnight, the filters were transferred into individual 6 mL Pony Vials (Perkin Elmer Inc, Waltham, MA, USA) and incubated in 3 mL of Ultima Gold scintillation cocktail (Perkin Elmer Inc, Waltham, MA, USA) for 30 minutes. The scintillation signal was measured for 3x 1 min using TriCarb 2910 TR (Perkin Elmer) scintillation counter in 3H CPM mode (LL: 0, UL: 18.6). Inhibition was calculated using the following formula: […]
With xc: signal of compound, Xpos: mean signal of positive control, Xneg: mean signal of negative control. Data fitting was carried out by GraphPad 7.0 using nonlinear fit ([Inhibitor]vs. response-variable slope (four parameters)).
For the results of the methyltransferase inhibition assay shown as “Inhibition” in Table 1, “I” represents an IC50 less than 0.1 μM, “II” represents an IC50 equal or higher than 0.1 μM and less than 1 μM, “III” represents an IC50 equal or higher than 1 µM and less than 10 µM and “IV” represents an IC50 equal or higher than 10 µM

[3] = target: T1, KMT9; experiment: Microscale thermophoresis (MST) KMT9 binding; conditions: microscale thermophoresis, His-tag labelled KMT9 (20 nM); read-out: MST
Experimental: To determine the binding affinity of the compounds according to the present invention and KMT9, microscale thermophoresis (MST) analysis was performed with a NanoTemper Monolith NT.115 instrument (NanoTemper Technologies GmbH). KMT9 was labelled with a RED-Tris-NTA labelling kit (NanoTemper Technologies GmbH) based on the manufacturer's instructions. Buffer including 25 mM HEPES (pH 7.5), 100 mM NaCl, 1 mM DTT and 0.05% Tween was used for the reaction buffer. Varying concentrations of the tested compounds of formula (I) as indicated in Table 1 were titrated against His-tag labelled KMT9 proteins (20 nM). Samples were loaded into standard Capillaries (NanoTemper Technologies GmbH) and MST measurements were performed using 40% MST power and 100% LED power. For each set of binding experiments, MST measurement was carried out with Binding Affinity module in MO.Control program under Nano-RED Excitation. Datasets were processed with the MO.Affinity Analysis software (NanoTemper Technologies GmbH).
For the results of the microscale thermophoresis (MST) assay shown as “MST” in Table 1, “A” represents a Kd of equal to or less than 10 nM (Kd≤10 nM); “B” represents a Kd of greater than 10 nM and equal to or less than 100 nM (10 nM<Kd<100 nM); “C” represents a Kd of greater than 100 nM and equal to or less than 1000 nM (100 nM<Kd ≤ 1000 nM); “D” represents a Kd of greater than 1000 nM (1000 nM<Kd).

Compound | ΔTm at 500 µM [1] | pIC50 [2] | pKd [3]
COCCn1cc(COc2ccc(CNCCCNC[C@H]3O[C@@H](n4cnc5c(N)ncnc54)[C@H](O)[C@@H]3O)cc2)nn1 [293 (190), (2R,3R,4S,5R)-2-(6-amino-9H-purin-9-yl)-5-(((3-((4-((1-(2-methoxyethyl)-1/-1,2,3-triazol-4-yl)methoxy)benzyl)amino)propyl)amino)methyl)tetrahydrofuran-3,4-diol] | ≤ 10 °C | < 5.00 | < 6.00
COCCn1cc(-c2ccc(CCNCCCNC[C@H]3O[C@@H](n4cnc5c(N)ncnc54)[C@H](O)[C@@H]3O)cc2)nn1 [295 (192), (2R,3R,4S,5R)-2-(6-amino-9H-purin-9-yl)-5-(((3-((4-(1-(2-methoxyethyl)-1H-1,2,3-triazol-4-yl)phenethyl)amino)propyl)amino)methyl)tetrahydrofuran-3,4-diol] | ≤ 10 °C | < 5.00 | 6.00 to 7.00
Nc1ncnc2c1ncn2[C@@H]1O[C@H](C(=O)NCCCNCCc2ccc(Oc3ccccc3)cc2)[C@@H](O)[C@H]1O [297 (194), (2S,3S,4R,5R)-5-(6-amino-9H-purin-9-yl)-3,4-dihydroxy-N-(3-((4-phenoxyphenethyl)amino)propyl) tetrahydrofuran-2-carboxamide] | ≤ 10 °C | 5.00 to 6.00 | 6.00 to 7.00
Nc1ncnc2c1ncn2[C@@H]1O[C@H](C(=O)NCCCNCCc2cccc(Oc3ccccc3)c2)[C@@H](O)[C@H]1O [299 (196), (2S,3S,4R,5R)-5-(6-amino-9H-purin-9-yl)-3,4-dihydroxy-N-(3-((3-phenoxyphenethyl)amino)propyl) tetrahydrofuran-2-carboxamide] | 10 to 15 °C | 5.00 to 6.00 | 6.00 to 7.00
Nc1ncnc2c1ncn2[C@@H]1O[C@H](C(=O)NCCCNCCc2ccccc2)[C@@H](O)[C@H]1O [301 (198), (2S,3S,4R,5R)-5-(6-amino-9H-purin-9-yl)-3,4-dihydroxy-N-(3-(phenethylamino)propyl) tetrahydrofuran-2-carboxamide] | ≤ 10 °C | < 5.00 | 6.00 to 7.00
Nc1ncnc2c1ncn2[C@@H]1O[C@H](C(=O)NCCCNC(=O)Cc2ccccc2)[C@@H](O)[C@H]1O [303 (200)] | ≤ 10 °C | < 5.00 | < 6.00
CCC(=O)NCCCNC(=O)[C@H]1O[C@@H](n2cnc3c(N)ncnc32)[C@H](O)[C@@H]1O [305 (204), (2,3S,4R,5R)-5-(6-amino-9//-purin-9-yl)-3,4-dihydroxy-N-(3-propionamidopropyl) tetrahydrofuran-2-carboxamide] | ≤ 10 °C | < 5.00 | < 6.00
CCNC(=O)NCCCNC(=O)[C@H]1O[C@@H](n2cnc3c(N)ncnc32)[C@H](O)[C@@H]1O [307 (206), (2S,3S,4R,5R)-5-(6-amino-9H-purin-9-yl)-N-(3-(3-ethylureido)propyl)-3,4-dihydroxytetrahydrofuran-2-carboxamide] | ≤ 10 °C | < 5.00 | < 6.00
CNc1ncnc2c1ccn2[C@@H]1O[C@H](CNCCCNCCc2ccccc2)[C@@H](O)[C@H]1O [309 (208), (2R,3R,45,5R)-2-(4-(methylamino)-7H-pyrrolo[2,3-d]pyrimidin-7-yl)-5-(((3-(phenethylamino)pronyl)amino)methyl) tetrahydrofuran-3.4-diol] | 10 to 15 °C | < 5.00 | < 6.00
CNc1ncnc2c1c(C)cn2[C@@H]1O[C@H](CNCCCNCCc2ccccc2)[C@@H](O)[C@H]1O [311 (210), (2R,3R,45,5R)-2-(5-methyl-4-(methylamino)-7//-pyrrolo[2,3-a]pyrimidin-7-yl)-5-(((3-(phenethylamino)propyl)amino)methyl)tetrahydrofuran-3,4-diol] | ≤ 10 °C | < 5.00 | < 6.00
CCC(=O)NCCCNC[C@H]1O[C@@H](n2cnc3c(N)ncnc32)[C@H](O)[C@@H]1O [313 (212), N-(3-((((2R,3S,4R,5R)-5-(6-amino-9//-purin-9-yl)-3,4-dihydroxytetrahydrofuran-2-yl)methyl)amino)propyl)propionamide] | ≤ 10 °C | < 5.00 | < 6.00
CCC(=O)NCCNC[C@H]1O[C@@H](n2cnc3c(N)ncnc32)[C@H](O)[C@@H]1O [315 (216), N-(2-((((2R,3S,4R,5R)-5-(6-amino-9H-purin-9-yl)-3,4-dihydroxytetrahydrofuran-2-yl)methyl)amino)ethyl)propionamide] | ≤ 10 °C | < 5.00 | < 6.00
Nc1ncnc2c1c(Br)cn2[C@@H]1C[C@H](CNCCCNCCc2cccc(F)c2)[C@@H](O)[C@H]1O [317 (218), (1R,2S,3R,5R)-3-(4-amino-5-bromo-7H-pyrrolo[2,3-d]pyrimidin-7-yl)-5-(((3-((3-fluorophenethyl)amino)propyl)amino)methyl) cyclopentane-1,2-diol] | 15 to 20 °C | 6.00 to 7.00 | 7.00 to 8.00
Nc1ncnc2c1c(Br)cn2[C@@H]1C[C@H](CNCCCNCCc2ccc(F)cc2)[C@@H](O)[C@H]1O [319 (220), (1R,2S,3R,5R)-3-(4-amino-5-bromo-7H-pyrrolo[2,3-d]pyrimidin-7-yl)-5-(((3-((4-fluorophenethyl)amino)propyl)amino)methyl) cyclopentane-1,2-diol] | 15 to 20 °C | 6.00 to 7.00 | 7.00 to 8.00
